Consider seven substances from US20260009008A1, “SYNTHETIC GENOME EDITING SYSTEM” (Pencil Biosciences Limited, priority 2021, published 2026).

In data set [1] the test system is PDS2 dsDNA bait (ACGGGT). Kind of data set: ELISA / bio-panning of M13 phage display peptides on biotinylated dsDNA bait PDS2. It counts as binding. The conditions noted are these: peptide displayed in the phage library. From the text:
(§1) As noted above, a commercially available M13 phage display library was employed (New England Biolabs, catalogue #E8111L) which contains around 1×10^912mer peptides fused to the N-terminus of the phage minor coat protein III. Two different 6 nt dsDNA baits were employed with a biotin tag immobilized on a streptavidin-coated 96 well plate as specified in Table 1 below:
(§2) ELISA assays were used to assess binding of peptides of the phage display library to the PDS1 and PDS2 dsDNA baits using an anti-M13 phage antibody labelled with horseradish peroxidase (HRP). After three rounds of bio-panning and sequence analysis of the bound peptides in the library, two 12 mer peptide sequences were selected, chemically synthesised, and modified as set out in Table 2 below.
(§3) • 1. Blocking step of the streptavidin coated 96 well plate (Fisher Scientific, UK) with the Blocking Buffer (0.1 M NaHCO3 (pH 8.6), 5 mg/ml BSA, filter sterilised and stored at 4° C.). • 2. 6 rounds of wash with 1× TBST after discarding the blocking solution. • 3. Precomplexing step (this step can be done at the same time as the blocking step, mentioned above), where the amplified phage library was incubated with each of the dsDNA baits in separate reactions. Each bait includes annealed double stranded DNA oligos (dsDNA), containing one of the PDS sites. […]

A short description of data set [2]: Observation of peptide aggregation / precipitation. In kind it is physicochemical.
Data set [3] concerns molecular beacon DNA oligonucleotide (SEQ. ID. No. 60). Nature of the data set: Molecular beacon assay for DNA binding and cleavage. In kind it is biochemical. The conditions noted are these: for emission signal of the fluorophore after a 15-minute incubation: peptide:molecular beacon 500:1, beacon 400 nM, 5 mM MnCl2; for signal / disassembly of the molecular beacon with different metal ions: zinc, manganese, calcium and magnesium chloride. From the text:
A molecular beacon assay was firstly used to screen each of the peptides for DNA binding and cleavage. For the purpose of these studies, the following DNA oligonucleotide containing 33 nucleotides was employed
where the first six nucleotides at each terminus complement one another forming a 6 bp double stranded DNA stem.
The hairpin structure formed contains a fluorescein molecule as a 5′ modification (6-FAM) and a fluorescent quencher (BHQ1) as a 3′ modification. In the hairpin conformation the fluorescent signal of the molecular beacon is reduced. If a peptide binds or causes cleavage, the hairpin structure will disassemble releasing the fluorophore from the quencher.
The reaction conditions were chosen to reflect conditions that might be expected to strengthen the probability of DNA cleavage by each peptide. As noted above, the peptide designs were inspired by the catalytic active sites of known nucleases. Often the divalent metal of choice for such sites is Mg^2 +. […] In contrast Mn^2 + ions require less coordination sites to facilitate catalysis.
Each reaction was carried out in a reaction buffer of 25 mM Tris-HCl (pH 7.5), 130 mM NaCl, 27μM KCl and 5 mM MnCl2. The molecular beacon was provided at a concentration of 400 nM.
The emission signal of the fluorophore after a 15-minute incubation was measured for each peptide mixed with the molecular beacon at a 500:1 concentration ratio.

Data set [4] deals with plasmid DNA (pBR322). Kind of data set: Gel plasmid cleavage assay. The conditions noted are these: for percentage of nicked plasmid with increasing peptide concentration: after 12 hours. It counts as biochemical. From the text: For this reason a further gel plasmid cleavage assay was employed to look for cleavage. Such a gel cleavage assay can differentiate between plasmid that is intact (no cleavage), nicked (ssDNA cleavage) and linearised (dsDNA cleavage) as the three plasmid species will migrate differently on an agarose gel. Intact plasmids have a supercoiled structure and therefore can migrate easily through an agarose gel whereas a ssDNA cleavage on the plasmid will relax this supercoiled structure. This produces a relaxed circle/nicked structure that migrates more slowly through the pores. The dsDNA cleavage of a plasmid produces a linearised plasmid. The linear structure migrates faster than a relaxed circular structure although not as fast as the supercoiled structure.
To optimize the assay, plasmid DNA (pBR322) was mixed with increasing concentrations of the peptide bL or bN, in the presence of Zn^2 + ions. […] The percentage of nicked species increases with greater peptide concentration for both bL and bN. […] An increasing proportion of the plasmid DNA is also observed in the wells of the gel. This DNA can be binding to the peptide causing a complex that is unable to migrate into the gel.

Data set [5] deals with PDS1 dsDNA bait (GAGGTC). Nature of the data set: ELISA / bio-panning of M13 phage display peptides on biotinylated dsDNA bait PDS1. In kind it is binding. The conditions noted are these: peptide displayed in the phage library.
Excerpt: as §1, §2, §3
(In general: An ELISA detects its analyte on a solid surface through an enzyme-linked reagent.)

Data set [6] has as its system nanoluciferase expression cassette with PDS variants in the target region. Nature of the data set: Nanoluciferase detection assay for binding ability of the DBD to variant PDSs (ApGet-i). The conditions noted are these: EPI300 cells, ApGet-i induced with ATC, nanoluciferase induced with IPTG. It counts as cell-based. From the text:
As noted above the DBD of sequence SLETWLKHREKDGGS (SEQ. ID. No. 4) was selected on the basis of binding affinity for the dsDNA sequence represented by the 5′ to 3′ sequence 5′GAGGTC3′ (the initially chosen predetermined sequence (PDS) for use in targeting). A further study was undertaken to determine the importance of various nucleotides in this PDS for binding to the same DBD using a nanoluciferase detection assay (Promega). This was on the basis of the prior observation as noted above that expression of ApGet-i in bacteria can suppress transcription of sequences containing target sites for the NAC plus the PDS used for DBD selection.
A nanoluciferase expression cassette was cloned in a second plasmid vector (the Detector plasmid) with the PDS as originally used for DBD selection and variants of that PDS in the target region as shown in FIG. 22.
Bacterial cells were transformed with the Editor plasmid in which ApGet-i expression was under the control of a TetR promoter. The NAC was also expressed by the same plasmid under the control of a constitutive J23119 promoter. The Detector and Editor plasmids were provided with different resistance genes and compatible origins of replication. […] The signal of the nanoluciferase was monitored on the microplate reader and normalized to take account of the degree of bacterial growth in the culture. […]

Data set [7] concerns extended dsDNA containing the cognate PDS (PDS1). Nature of the data set: T7E1 cleavage assay for peptide binding and unwinding of dsDNA target. It counts as biochemical. The conditions noted are these: chemically synthesized peptides, PDS1 as cognate PDS. From the text:
FIG. 4: Cleavage assay results using T7E1 enzyme for binding of the chemically synthesized peptides 1, 2, 3 and 4 (Table 2 in Example 1) to the two 6 nt sequences as above designated PDS1 and PDS2 in a dsDNA target and unwinding of the dsDNA target.
It was reasoned that the phage clones with the selected DNA binding peptides will alter a DNA duplex in a region presenting the cognate PDS, which may result in recognition by DNA nucleases, such as T7E1, commonly used to detect insertions or deletions (indels), which result from the activity of genome editing enzymes, such as Cas9, Cas12a etc. Results of such cleavage assays for destabilized DNA duplex using the extended dsDNA baits as set out in Table 3 below and T7E1 and Surveyor enzymes support this hypothesis (see FIGS. 3a-c), i.e. that binding of the clones presenting the selected fused peptides to dsDNA destabilizes the structure of the DNA duplex in a manner facilitating accessibility for RNA hybridization.
The modified peptides as set out in Table 2 were used to test the sequences for use as DNA-binding domains without M13 phage connection. The modifications included amidation and acetylation at the […] to reflect natural peptide modifications to improve peptide stability and prevent degradation. In the case of Peptides 1 and 3, an additional C-terminal linker (GGS) was provided as noted above. […]

For data set [8], the system named is PDS1 in an extended dsDNA target. Nature of the data set: FRET experiment for binding/unwinding of dsDNA and RNA hybridization. The conditions noted are these: FAM-tagged targeting RNA, target DNA tagged with Cy5 or Texas Red. In kind it is biochemical. How it is done: FIG. 5: Schematic diagram illustrating a FRET experiment to assess specific binding and unwinding of a dsDNA target by peptide binding to a PDS with RNA hybridization. Results are also shown for binding of Peptide 1 (SEQ. ID. No. 37 as shown in Table 2) to PDS1 having the 5′ to 3′ sequence GAGGTC. The FRET signal was determined upon incubation of the PDS1 containing dsDNA targets with 5′ FAM-RNA with (2, 4) or without peptide (1, 3).
A FRET experiment was carried out to assess the binding and unwinding activity of Peptide 1 with ability to facilitate RNA hybridization when presented with PDS1 in an extended dsDNA target as shown schematically in FIG. 5. It was hypothesized that, upon binding, Peptide 1 will cause some transient unwinding of the dsDNA which will facilitate binding of a targeting RNA. The fluorescent donor, 6-carboxyfluorescein (FAM), was used to tag an appropriate targeting RNA with a 15 bp complementary sequence. Target DNA was tagged with the fluorescent acceptor Cy5 at a 3′ end or Texas Red at a 5′-end.

Entries after “also recorded” stand apart in the source; their conditions may differ.

In the case of AGDWESWTNGSW [Peptide 4], in data set [1], the “binding to the PDS2 dsDNA bait” value was “binding to the PDS2 dsDNA bait”.
For the substance IEIDIHI [ibD], the “aggregation / precipitation of peptide” value in data set [2] is recorded as “no observable aggregates even at the highest tested concentration”.
On to IHIDISI [bN], for which the “signal with increasing peptide concentration, Zn2+ ions” value in data set [3] (Zn2+ ions, peptide 0-800 μM) is “still increase up to 800μM”. The “signal without any metal ions” value in data set [3] (no metal) is given as “high signal”. Besides, in data set [3] (peptide 0-800 μM, Mn2+ or Zn2+), the “signal for the disassembly of the molecular beacon with increasing peptide concentration” value is “general increase”. Further, the “signal with Mn2+ ions compared with Mg2+ ions” value in data set [3] (peptide concentration 400 μM, beacon 400 nM) was “greater than the bN peptide with Mg^2 + ions”. In addition, in data set [3], the “emission signal of the fluorophore after a 15-minute incubation” value is reported as “relatively high emission signal” and the “signal / disassembly of the molecular beacon with different metal ions” value is “high increase in the signal regardless of the metal; also recorded: greater with Mn^2 + ions”. Besides, in data set [4], the cleavage of plasmid entry is given as “some cleavage”. In data set [4] (Zn2+ ions), the “percentage of nicked plasmid with increasing peptide concentration” value is given as “increase in the percentage of nicked plasmid”.
Regarding LDLDLKLHL [bL], in data set [3], the “emission signal of the fluorophore after a 15-minute incubation” value is on record as “relatively high emission signal” and the “signal / disassembly of the molecular beacon with different metal ions” value was “more extensive in the presence of zinc chloride ions”. The cleavage of plasmid entry in data set [4] was “some cleavage”. The “amount of nicked plasmid at higher peptide concentrations (greater than 600 μM)” value in data set [4] (Zn2+ ions, 12 hours) is “continues to increase”. Also, in data set [4] (Zn2+ ions), the “percentage of nicked plasmid with increasing peptide concentration” value is recorded as “increase in the percentage of nicked plasmid”.
Turning to SLETWLKHREKD [Peptide 2], the “binding ability for the PDS1 dsDNA bait” value in data set [5] is recorded as “high binding ability”.
Take “SLETWLKHREKDGGS (DBD) [DBD of SEQ. ID. No. 4]”: the “inhibition of luciferase expression with different PDSs” value is recorded as “effective in inhibiting expression of the luciferase” in data set [6] (listed as DBD) and “shown to be effective” in data set [6] (listed as DBD of SEQ. ID no. 4).
Regarding SLETWLKHREKDGGS [Peptide 1], the “binding and non-duplex structure formation (T7E1 cleavage)” value in data set [7] is “best candidate to be a DNA-binding domain”. For the same substance, the “RNA-DNA hybridisation reflected by FRET signal” value in data set [8] is reported as “shown to be facilitated; also recorded: increase of FRET signal”.
